System: Erysiphe graminis forma specialis tritici
Assay: Activity against powdery mildew of wheat, protective spray test on wheat seedlings cv. Kanzler
Type: in vivo, Erysiphe graminis forma specialis tritici (on wheat)
Conditions: sprayed to runoff 24 h before inoculation, rated visually after 7 days, untreated plants 90% disease
Description: The active ingredients, separately or jointly, were prepared as a 10% strength emulsion in a mixture of 70% by weight of cyclohexanone, 20% by weight of Nekanil® LN (Lutensol® AP6, wetter with emulsifying and dispersing action based on ethoxylated alkylphenols) and 10% by weight of Wettol® EM (nonionic emulsifier based on ethoxylated castor oil) and diluted with water to give the desired concentration.
Use Example 1—Activity Against Powdery Mildew of Wheat (Erysiphe graminis f. sp. […] f. sp. tritici)
Leaves of wheat seedlings cv. “Kanzler” which have grown in pots were sprayed to runoff point with aqueous preparation of active ingredient made with a stock solution composed of 10% of active ingredient, 63% of cyclohexanone and 27% of emulsifier, and, 24 hours after the spray coating had dried on, dusted with spores of powdery mildew of wheat (Erysiphe graminis forma specialis tritici). The test plants were subsequently placed in a greenhouse at temperatures between 20 and 24° C. and a relative atmospheric humidity of 60 to 90%. After 7 days, the extent of the mildew development was determined visually in % disease of the total leaf area.

Structure (SMILES)	extent of mildew development, % disease of the total leaf area (4 ppm)	extent of mildew development, % disease of the total leaf area (16 ppm)
COc1cc(C)c(C(=O)c2c(Cl)ccc(Cl)c2C)c(OC)c1OC [I.1-02, 2,5-Dichloro-2′,6-dimethyl-4′,5′,6′-trimethoxybenzophenone]	no disease	no disease
COc1cc(C)c(C(=O)c2c(F)ccc(F)c2C)c(OC)c1OC [I.5-02, 2,5-Difluoro-2′,6-dimethyl-4′,5′,6′-trimethoxybenzophenone]	1%	no disease

Source: patent US20040082815A1, “Benzophenones, the production thereof and their use for controlling plant pathogenic fungi” (priority 2001, published 2004)
